# Read-outs that look alike come from different tables or passages of the source.
# Columns and labels:
# [1] = Phase 1b 4-week oral dosing study in NASH patients: pharmacokinetics; format: in vivo, human; conditions: for AUC(0-t) / Cmax / half-life / Tmax: both sexes, human, plasma, oral; for AUC(0-t): read-out: AUC(0-T), mean (standard deviation); for Cmax: read-out: Cmax, mean (standard deviation); for half-life: read-out: T1/2, mean (standard deviation) (converted); for Tmax: read-out: Tmax, mean (standard deviation)
# Text: A total of 63 patients completed the study with 21 patients per dose group (completion of MRI-PDFF measurement). […] Subjects provided written informed consent to participate in the study • 2. Males or females subjects 18 years or older, at the time of signing informed consent • 3. BMI 20-45 kg/m^2 • 4. […] Value of Fibroscan®≥7 kPa • OR • b. MRE≥2.75 kPa • Clinical diagnosis of NASH was defined in this clinical trial as the existence of one or more of the following risk factors for NASH, namely: • a. Type 2 diabetes or elevated fasting blood sugar • b. Abdominal obesity • c. Elevated lipid levels, especially elevated levels of serum triglycerides • d. Hypertension, or • e. Low levels of HDL cholesterol • 5. For serum transaminases, ALT concentration for all patients at the time of screening was >1 and <5 times upper limit of normal (ULN) of the central lab in the absence of another cause of liver disease. If a patient had lab records in the past 6 months, ALT concentrations were <20 U/L female and <30 U/L male. AST concentration for all patients at the time of screening was <5× ULN • 6. […] Platelet counts≥120,000/mm^3 • 8. Female subjects were eligible for the study if they met the following criteria: • Are not pregnant or nursing • Women of child-bearing potential (defined as females who are not surgically sterile or who are not over the age of 52 and amenorrheic for at least 12 months) must utilize appropriate birth control throughout the study duration. Acceptable methods that may be used are abstinence, birth control pills (“The Pill”) or patch, diaphragm, IUD (coil), vaginal ring, condom, surgical sterilization or progestin implant or injection, or sexual activity limited to a sterile (e.g., vasectomized) male partner • 9. Male participants agreed to consistently and correctly use a condom in combination with one of the above methods of birth control from enrolment to 30 days after the last dose of study medication • 10. Participants were able to comply with dosing and able to complete the study schedule of assessments
# Huh-7 cells = experiment: real-time RT-PCR gene expression; format: cell-based, human; conditions: HG 72 h; 25HC3S 6.25-50 μM, 1-8 hours
# Experimental: FIGS. 3A-3D. Expression of key genes related to signaling pathways. […] Key Genes and their targeting genes expression were determined by RT-PCR analysis. […] Each sample, 2 μg, was sent to […], Inc. (Hopkinton, MA) for analysis of global methylation bisulfite sequencing. The same samples, 6 μg, were sent to Novogene Co., Ltd (Tianjin, China) for analysis of whole genome bisulfite sequencing (WGBS). Total RNA was isolated using the Promega SV total RNA isolation system (Madison, WI) with DNase treatment. […] Real-time RT-PCR was performed using SYBR Green as the indicator on ABI 7500 Fast Real-Time PCR System (Applied Biosystems, Foster City, CA). Amplifications of β-actin or GAPDH were used as internal controls. Relative messenger RNA (mRNA) expression was quantified with the comparative cycle threshold (Ct) method using the primer set shown in Table 1.1 and was expressed as 2^-ΔΔCt.
# [2] = metabolite profiling of plasma, urine, feces after intravenous dose; conditions: rats 10 mg/kg intravenous
# Experimental: Samples were profiled using high performance liquid chromatography with radiodetection and metabolic characterization was performed using mass spectrometry and tandem mass spectrometry analysis.
# [3] = single oral dose pharmacokinetic study in healthy and NASH subjects; format: in vivo, human; conditions: for Cmax: po, read-out: Cmax, Mean
# Experimental: The present Example was a randomized, dose ranging, single dose safety and pharmacokinetic study of 25HC3S administered to subjects with NASH and control healthy subjects. […] For each cohort, 10 subjects with NASH were enrolled which were further classified into cirrhotic and non-cirrhotic. Each subject received only one dose of study treatment. The second cohort was dosed after a review of safety and tolerability data from Cohort 1.
compound,measurement,setting,value
"C[C@H](CCCC(C)(C)O)[C@H]1CC[C@H]2[C@@H]3CC=C4C[C@@H](OS(=O)(=O)O)CC[C@]4(C)[C@H]3CC[C@]12C [25HC3S, 25-hydroxycholesterol-3-sulfate]","CL/F, mean (standard deviation)",[1]; 50 mg QD (n = 22),150.6 (51.5) L/h
same,"CL/F, mean (standard deviation)",[1]; 150 mg QD (n = 21),176.6 (80.5) L/h
same,"CL/F, mean (standard deviation)",[1]; 300 mg BID (n = 21),166.2 (60.4) L/h
same,AUC(0-t),[1]; 50 mg QD (n = 22),340 ng·h/mL
same,Cmax,[1]; 50 mg QD (n = 22),79.1 ng/mL
same,half-life,[1]; 50 mg QD (n = 22),2.7 h
same,Tmax,[1]; 50 mg QD (n = 22),2.4 h
same,AUC(0-t),[1]; 150 mg QD (n = 21),1040 ng·h/mL
same,Cmax,[1]; 150 mg QD (n = 21),274 ng/mL
same,half-life,[1]; 150 mg QD (n = 21),2.7 h
same,Tmax,[1]; 150 mg QD (n = 21),2 h
same,AUC(0-t),[1]; 300 mg BID (n = 21),2140 ng·h/mL
same,Cmax,[1]; 300 mg BID (n = 21),430 ng/mL
same,half-life,[1]; 300 mg BID (n = 21),2.4 h
same,Tmax,[1]; 300 mg BID (n = 21),2.3 h
same,"CREB5 expression, increase",Huh-7 cells,up to 20 fold
same,"DUSP8 expression, increase",Huh-7 cells,5 fold
same,"FAS expression, decrease",Huh-7 cells,~90%
same,"HMGR expression, decrease",Huh-7 cells,~90%
same,"PGC1A expression, increase",Huh-7 cells,12 fold
same,% of dose in feces,[2]; pools 0 to 48 hours,2%
same,share of the exposure (AUC) to 25HC3S related radioactivity in plasma,[2]; up to 1 hour post-dose,approximately 54%
same,"CL/F, Mean","[3]; 200 mg single oral dose, Healthy",171.25 ± 28.60 L/h
same,"Plasma 25HC3S levels detectable up to, post-dose",[3]; Cohort 1 (50 mg) healthy subjects,up to 12 hours
same,AUC0-inf higher in NASH subjects,[3]; Cohort 2,approximately 20%
same,Geometric mean AUC0-12 and AUC0-last higher in NASH than healthy subjects,[3]; Cohort 2,approximately 30%
same,"Plasma 25HC3S levels detectable up to, post-dose",[3]; Cohort 2 (200 mg) healthy subjects,up to 16 hours
same,"geometric mean Cmax increase, NASH over healthy subjects",[3]; Cohorts 1 and 2,18-24%
same,"exposure (AUC parameters), increasing trends in NASH subjects",[3]; NASH vs healthy,up to 31%
same,half-life,"[3]; human, plasma, oral, 200 mg, across both healthy and NASH subject groups, 50 and 200 mg, read-out: T1/2, range of mean values",1.67 to 2.51 h
same,Cmax,"[3]; human, plasma, 50 mg, 50 mg single oral dose, Healthy",94 ± 27.3 ng/mL
same,Cmax,"[3]; human, plasma, 200 mg, 200 mg single oral dose, Healthy",260 ± 54.8 ng/mL
